Entries after “also recorded” stand apart in the source; their conditions may differ.
Experiments:
[1] = test system: adult mouse heart following myocardial infarction; experiment: Trichrome staining after adult MI, malonate treatment starting 1-week post-MI; conditions: malonate for 4 weeks starting 1-week post-MI, 6 weeks post-MI
Excerpt: Adult male mice (8-week-old) were subjected to MI by ligation of the proximal aspect of the LAD coronary artery. In brief, mice were anaesthetized using 3% isoflurane, then mice were intubated with PE50 tubing and placed on a mouse ventilator at 120-130 breaths per minute with a stroke volume of 150 microliters and maintained on 2% isoflurane. A left lateral incision through the fourth intercostal space was made to expose the heart. After visualizing the left coronary artery, 7-0 suture was placed through the myocardium in the anterolateral wall and secured as previously describer^17,18. Coronary artery entrapment was confirmed by observing blanching of the distal circulation (ventricular apex). ECG was used to confirm MI by noting ST segment changes. The lungs were over inflated, and the ribs and muscle layers were closed by absorbable sutures. The skin is closed by additional suturing using 6-0 nylon. The mouse was recovered from the anesthesia and extubated.
Saline was used as a vehicle control for all experiments. […]
Hearts were harvested and fixed in 4% paraformaldehyde (PFA) in PBS solution overnight at 4° C., processed for paraffin embedding, and sectioned in intervals. […] Scar size measurements were quantified from at least 3 sections of the heart from ligature to apex. ImageJ was used to quantify the fibrotic scar, and the average scar area for each heart was plotted. […]

[2] = test system: adult mouse heart following myocardial infarction; experiment: Echocardiography after adult myocardial infarction, malonate from within an hour post-MI for two weeks; assay type: in vivo; conditions: for % EF (Ejection Fraction) / % FS (Fractional Shortening) / LV Mass (Left Ventricular Mass, Anatomical Weight) / LV Vol; d (Left Ventricular Volume; diastole) / LV Vol; s (Left Ventricular Volume; systole) / LVAWD (Left Ventricle Anterior Wall Thickness Diastole) / LVAWS (Left Ventricle Anterior Wall Thickness Systole) / LVIDD (Left Ventricle Internal Diameter Diastole) / LVIDS (Left Ventricle Internal Diameter Systole) / LVPWD (Left Ventricle Posterior Wall Thickness Diastole) / LVPWS (Left Ventricle Posterior Wall Thickness Systole): adult mice, mean ± SE
cardiomyocytes = experiment: Immunostaining (pH3, Aurora B), WGA and trichrome staining after MI in P7 mice; conditions: MI at P7, dimethyl malonate 100 mg/kg daily for 2 weeks from birth, 21 days post-MI
Excerpt: We then analyzed the hearts following injury to determine whether malonate results in prolongation of the neonatal regenerative window (FIG. 5A). To examine whether malonate stimulates cardiomyocyte proliferation, we performed MI in 7-day-old mice and analyzed their hearts at 7 days post-MI by immunostaining for markers of proliferation.
(§1) Neonatal mice at postnatal day 1 (P1) or day 7 (P7) were used for myocardial infarction (MI) surgery. Neonatal mice were subjected to MI surgeries as previously described. Briefly, neonates were anesthetized by hypothermia on ice. Lateral thoracotomy at the fourth intercostal space was performed by blunt dissection of the intercostal muscles after skin incision. A C-1 tapered needle attached to a 6-0 prolene suture (Ethicon Inc., Bridgewater, N.J.) was passed through the mid-ventricle below the left anterior descending coronary artery (LAD) and tied off to induce MI. The prolene suture was used to suture the ribs together and seal the chest wall incisions, and the skin was closed using adhesive glue (3M). The mice then were warmed on a heating pad until recovery. Sham-operated mice underwent the same procedure including hypothermic anesthesia, but not LAD ligation.
(§2) Neonatal mice were weighed and injected daily with either saline, 100 mg/kg dimethyl succinate (Sigma), 100 mg/kg dimethyl malonate (Sigma), or 100 μg/kg Atpenin A5 (Enzo Life Sciences). Dimethyl succinate and dimethyl malonate were dissolved in saline. Stock solution of Atpenin A5 at 0.1 mg/ml was initially prepared by dissolving in DMSO (Sigma) and then further diluted with saline before injection. Saline was used as a vehicle control for all experiments.
Hearts were harvested and fixed in 4% paraformaldehyde (PFA) in PBS solution overnight at 4° C., processed for paraffin embedding, and sectioned in intervals. Masson's trichrome staining was performed according to the manufacture's protocol (Newcomer Supply, Middleton, WI). Scar size measurements were quantified from at least 3 sections of the heart from ligature to apex. ImageJ was used to quantify the fibrotic scar, and the average scar area for each heart was plotted.
We injected dimethyl malonate (100 mg/kg, daily) in neonatal mice directly after birth for 2 weeks with an MI performed once the mice reached P7.

adult cardiomyocytes = experiment: Histology after adult MI (TTC, TUNEL, pH3, Aurora B, BrdU, nucleation, γH2AX, trichrome, WGA, coronary casting, PECAM/α-SMA); assay type: in vivo, mouse
[3] = test system: postnatal (P7) mouse heart following myocardial infarction; experiment: Echocardiography after myocardial infarction in P7 juvenile mice; conditions: for % EF (Ejection Fraction) / % FS (Fractional Shortening) / LV Mass (Left Ventricular Mass, Anatomical Weight) / LV Vol; d (Left Ventricular Volume; diastole) / LV Vol; s (Left Ventricular Volume; systole) / LVAWD (Left Ventricle Anterior Wall Thickness Diastole) / LVAWS (Left Ventricle Anterior Wall Thickness Systole) / LVIDD (Left Ventricle Internal Diameter Diastole) / LVIDS (Left Ventricle Internal Diameter Systole) / LVPWD (Left Ventricle Posterior Wall Thickness Diastole) / LVPWS (Left Ventricle Posterior Wall Thickness Systole): dimethyl malonate 100 mg/kg daily for 2 weeks from birth, mean ± SE
Description: as §1, §2
Transthoracic echocardiography was performed by using a Visual Sonics 770 ultrasonograph with a 25-MHz transducer (Visual Sonics, Toronto) as described previously^19. Mice were lightly anesthetized with 1% isoflurane and maintained on a heated platform. Two-dimensionally guided M-mode images from a parasternal long axis (PLAX) of the left ventricle (LV) were acquired at the tip of the papillary muscles. Wall thickness and chamber diameters were measured in both diastole and systole. Fractional shortening was calculated as (LVDd−LVDs)/LVDd×100, where LVDd is LV diameter in diastole and LVDs is LV diameter in systole. Ejection fraction was calculated as [(7.0/(2.4+LVDd)(LVDd)^3−(7.0/(2.4+LVDs)(LVDs)^3/(7.0/(2.4+LVDd)(LVDd)^3×100 and LV mass was calculated by using the formula [1.05×((Posterior Walldiastole+Anterior Walldiastole+LVDd)^3−(LVDd)^3)]. All parameters were measured over at least three consecutive cycles.
We injected dimethyl malonate (100 mg/kg, daily) in neonatal mice directly after birth for 2 weeks with an MI performed once the mice reached P7. We then analyzed the hearts following injury to determine whether malonate results in prolongation of the neonatal regenerative window (FIG. 10A).

[4] = test system: tricarboxylic acid (TCA) cycle and glucose metabolism; experiment: LC-MS metabolite analysis of adult hearts
Description: Saline was used as a vehicle control for all experiments. […] Adult mice were injected intraperitoneally daily with either saline or 100 mg/kg dimethyl malonate post-MI for 2 or 4 weeks.
To analyze intracellular metabolites, metabolites were extracted with cold liquid chromatography-mass spectrometry (LC-MS) grade 3/1 butanol/methanol (v/v). The methanol layer was transferred to a new vial and samples were dried under nitrogen flow and subsequently dissolved in LC-MS grade water for LC-MS analysis methods. Protein pellets were removed by centrifugation. Samples were analyzed using a Thermo Q-Exactive mass spectrometer coupled to a Vanquish Horizon Ultra-High Performance Liquid Chromatograph (UHPLC). Metabolites were separated on a C18 (details below) at a 0.2 ml per min flow rate and 30° C. column temperature. […] The identification of metabolites reported was based on exact m/z and retention times, which were determined with chemical standards. Data were analyzed with Maven. Relative metabolite levels were normalized to internal standard Tryptophan (^13C11) and expressed relative to levels measured in the control group.
To determine whether SDH inhibition regulates cardiomyocyte cell cycle activity by modulating succinate levels, we measured the levels of intracellular succinate by liquid chromatography-mass spectrometry (LC-MS). […]

[5] = Baseline before surgery and dosing (same values as saline Table 4A)
[6] = MI, 14 DPMI, dimethyl malonate 100 mg/kg intraperitoneally daily for 2 weeks post-MI
[7] = MI, 28 DPMI, dimethyl malonate 100 mg/kg intraperitoneally daily for 2 weeks post-MI
[8] = sham (SH), 14 DPMI, dimethyl malonate 100 mg/kg intraperitoneally daily for 2 weeks
[9] = sham (SH), 28 DPMI, dimethyl malonate 100 mg/kg intraperitoneally daily for 2 weeks
[10] = dimethyl malonate 100 mg/kg daily for 2 weeks, 28 days post-MI
[11] = dimethyl malonate 100 mg/kg daily for 2 weeks, 28 days post-MI, vs controls
[12] = dimethyl malonate 100 mg/kg daily, 14 days post-MI
[13] = MI at P7 (n = 6), echo 21 days post-MI (P7D21)
[14] = sham at P7 (SH, n = 6), echo at day 21 (P7D21)

COC(=O)CC(=O)OC [Malonate, dimethyl malonate]
scar size (fibrosis quantification) [1]: significant reduction in scar size
cardiac function by echocardiography (EF and FS) ([2]; adult MI, dimethyl malonate 100 mg/kg daily for 2 weeks, 28 days post-MI, vs saline): complete restoration of cardiac function; also recorded: significant improvement of cardiac function
cardiac function by echocardiography ([2]; adult MI, dimethyl malonate 100 mg/kg daily, 14 days post-MI, vs controls, difference was not significant): trending improvement in cardiac function
% EF (Ejection Fraction) [2, 5]: 57.761 ± 0.698%
% FS (Fractional Shortening) [2, 5]: 29.844 ± 0.434%
LV Mass (Left Ventricular Mass, Anatomical Weight) [2, 5]: 78.043 ± 3.706 mg
LV Vol; d (Left Ventricular Volume; diastole) [2, 5]: 59.761 ± 3.319 µL
LV Vol; s (Left Ventricular Volume; systole) [2, 5]: 25.363 ± 1.705 µL
LVAWD (Left Ventricle Anterior Wall Thickness Diastole) [2, 5]: 0.641 ± 0.006 mm
LVAWS (Left Ventricle Anterior Wall Thickness Systole) [2, 5]: 0.767 ± 0.005 mm
LVIDD (Left Ventricle Internal Diameter Diastole) [2, 5]: 3.731 ± 0.086 mm
LVIDS (Left Ventricle Internal Diameter Systole) [2, 5]: 2.619 ± 0.072 mm
LVPWD (Left Ventricle Posterior Wall Thickness Diastole) [2, 5]: 0.639 ± 0.006 mm
LVPWS (Left Ventricle Posterior Wall Thickness Systole) [2, 5]: 0.769 ± 0.005 mm
% EF (Ejection Fraction) [2, 6]: 44.421 ± 5.272%
% FS (Fractional Shortening) [2, 6]: 22.034 ± 2.951%
LV Mass (Left Ventricular Mass, Anatomical Weight) [2, 6]: 80.024 ± 8.731 mg
LV Vol; d (Left Ventricular Volume; diastole) [2, 6]: 74.738 ± 12.392 µL
LV Vol; s (Left Ventricular Volume; systole) [2, 6]: 44.249 ± 11.125 µL
LVAWD (Left Ventricle Anterior Wall Thickness Diastole) [2, 6]: 0.583 ± 0.015 mm
LVAWS (Left Ventricle Anterior Wall Thickness Systole) [2, 6]: 0.723 ± 0.020 mm
LVIDD (Left Ventricle Internal Diameter Diastole) [2, 6]: 4.047 ± 0.283 mm
LVIDS (Left Ventricle Internal Diameter Systole) [2, 6]: 3.188 ± 0.334 mm
LVPWD (Left Ventricle Posterior Wall Thickness Diastole) [2, 6]: 0.578 ± 0.014 mm
LVPWS (Left Ventricle Posterior Wall Thickness Systole) [2, 6]: 0.753 ± 0.016 mm
% EF (Ejection Fraction) [2, 7]: 48.940 ± 5.707%
% FS (Fractional Shortening) [2, 7]: 24.858 ± 3.214%
LV Mass (Left Ventricular Mass, Anatomical Weight) [2, 7]: 83.201 ± 16.390 mg
LV Vol; d (Left Ventricular Volume; diastole) [2, 7]: 84.656 ± 22.884 µL
LV Vol; s (Left Ventricular Volume; systole) [2, 7]: 47.375 ± 16.164 µL
LVAWD (Left Ventricle Anterior Wall Thickness Diastole) [2, 7]: 0.528 ± 0.033 mm
LVAWS (Left Ventricle Anterior Wall Thickness Systole) [2, 7]: 0.693 ± 0.042 mm
LVIDD (Left Ventricle Internal Diameter Diastole) [2, 7]: 4.183 ± 0.448 mm
LVIDS (Left Ventricle Internal Diameter Systole) [2, 7]: 3.193 ± 0.451 mm
LVPWD (Left Ventricle Posterior Wall Thickness Diastole) [2, 7]: 0.600 ± 0.020 mm
LVPWS (Left Ventricle Posterior Wall Thickness Systole) [2, 7]: 0.755 ± 0.017 mm
% EF (Ejection Fraction) [2, 8]: 52.458 ± 2.795%
% FS (Fractional Shortening) [2, 8]: 26.613 ± 1.724%
LV Mass (Left Ventricular Mass, Anatomical Weight) [2, 8]: 78.241 ± 13.192 mg
LV Vol; d (Left Ventricular Volume; diastole) [2, 8]: 71.304 ± 10.106 µL
LV Vol; s (Left Ventricular Volume; systole) [2, 8]: 33.993 ± 5.072 µL
LVAWD (Left Ventricle Anterior Wall Thickness Diastole) [2, 8]: 0.575 ± 0.045 mm
LVAWS (Left Ventricle Anterior Wall Thickness Systole) [2, 8]: 0.723 ± 0.047 mm
LVIDD (Left Ventricle Internal Diameter Diastole) [2, 8]: 4.005 ± 0.234 mm
LVIDS (Left Ventricle Internal Diameter Systole) [2, 8]: 2.940 ± 0.188 mm
LVPWD (Left Ventricle Posterior Wall Thickness Diastole) [2, 8]: 0.575 ± 0.035 mm
LVPWS (Left Ventricle Posterior Wall Thickness Systole) [2, 8]: 0.733 ± 0.046 mm
% EF (Ejection Fraction) [2, 9]: 48.208 ± 3.686%
% FS (Fractional Shortening) [2, 9]: 24.032 ± 2.173%
LV Mass (Left Ventricular Mass, Anatomical Weight) [2, 9]: 82.315 ± 5.106 mg
LV Vol; d (Left Ventricular Volume; diastole) [2, 9]: 68.006 ± 5.647 µL
LV Vol; s (Left Ventricular Volume; systole) [2, 9]: 35.538 ± 4.993 µL
LVAWD (Left Ventricle Anterior Wall Thickness Diastole) [2, 9]: 0.623 ± 0.014 mm
LVAWS (Left Ventricle Anterior Wall Thickness Systole) [2, 9]: 0.755 ± 0.010 mm
LVIDD (Left Ventricle Internal Diameter Diastole) [2, 9]: 3.940 ± 0.137 mm
LVIDS (Left Ventricle Internal Diameter Systole) [2, 9]: 2.998 ± 0.170 mm
LVPWD (Left Ventricle Posterior Wall Thickness Diastole) [2, 9]: 0.618 ± 0.013 mm
LVPWS (Left Ventricle Posterior Wall Thickness Systole) [2, 9]: 0.753 ± 0.013 mm
cardiomyocyte cell size (wheat germ agglutinin staining) (cardiomyocytes): significant reduction in cardiomyocyte cell size
structural regeneration and fibrosis (trichrome staining) (cardiomyocytes; vs saline controls): complete heart regeneration
fibrosis (trichrome staining, quantification) (adult cardiomyocytes; dimethyl malonate 100 mg/kg daily for 2 weeks, 14 days post-MI, vs controls, difference was not significant): trend for reduction in fibrosis
capillary density and vascular smooth muscle cells in the infarct zone (PECAM, α-SMA) (adult cardiomyocytes; [10]): significant increase in capillary density and vascular smooth muscle cells
scar size (quantification of fibrosis) (adult cardiomyocytes; [10]): significant reduction of scar size
cardiomyocyte size (WGA staining) (adult cardiomyocytes; [11]): significant reduction in cardiomyocyte size
coronary artery formation / revascularization of the infarct zone (coronary casting) (adult cardiomyocytes; [11]): Re-vascularization in the infarcted zone was also induced; also recorded: remarkable formation of coronary arteries below the ligature site
heart weight to body weight ratios (adult cardiomyocytes; dimethyl malonate 100 mg/kg daily for 2 weeks, 28 days post-MI, vs saline): No significant differences
cardiac structure (trichrome staining) (adult cardiomyocytes; dimethyl malonate 100 mg/kg daily for 2 weeks, 28 days post-MI, vs saline controls): complete restoration of the myocardium with minimal fibrosis; also recorded: remarkable restoration of the myocardium with minimal fibrosis
number of apoptotic cardiomyocytes (TUNEL staining) (adult cardiomyocytes; dimethyl malonate 100 mg/kg daily, 3- or 7-days post-MI, vs saline): no difference in the number of apoptotic cardiomyocytes
BrdU incorporation in cardiomyocytes (adult cardiomyocytes; [12]): significant increase in 5-bromodeoxyuridine (BrdU) incorporation
number of binucleated cardiomyocytes (adult cardiomyocytes; [12]): significant decrease in the number of binucleated cardiomyocytes
number of mononucleated cardiomyocytes (adult cardiomyocytes; [12]): remarkable increase in the number of mononucleated cardiomyocytes
cardiomyocytes with γH2AX foci (DNA damage) (adult cardiomyocytes; dimethyl malonate 100 mg/kg daily, vs controls): significant decrease in the number of cardiomyocytes with γH2AX foci
non-viable myocardium, myocardial necrosis (TTC viability stain) (adult cardiomyocytes; dimethyl malonate 100 mg/kg from within an hour post-MI, daily, 3 days post-MI, vs saline): no significant difference
gross morphology of the heart (adult cardiomyocytes; dimethyl malonate 100 mg/kg intraperitoneally for two weeks, 28 days post-MI, vs controls): more muscularized ventricle
vascular density in the infarct zone (MICROFIL casting, ImageJ region of interest) (adult cardiomyocytes; malonate, 28 days post-MI, vs controls): significant increase in vascular density in the infarct zone
% EF (Ejection Fraction) [3, 13]: 69.751 ± 5.496%
% FS (Fractional Shortening) [3, 13]: 38.443 ± 4.043%
LV Mass (Left Ventricular Mass, Anatomical Weight) [3, 13]: 48.029 ± 9.293 mg
LV Vol; d (Left Ventricular Volume; diastole) [3, 13]: 24.289 ± 5.739 µL
LV Vol; s (Left Ventricular Volume; systole) [3, 13]: 8.741 ± 3.350 µL
LVAWD (Left Ventricle Anterior Wall Thickness Diastole) [3, 13]: 0.702 ± 0.029 mm
LVAWS (Left Ventricle Anterior Wall Thickness Systole) [3, 13]: 0.814 ± 0.023 mm
LVIDD (Left Ventricle Internal Diameter Diastole) [3, 13]: 2.490 ± 0.269 mm
LVIDS (Left Ventricle Internal Diameter Systole) [3, 13]: 1.578 ± 0.259 mm
LVPWD (Left Ventricle Posterior Wall Thickness Diastole) [3, 13]: 0.684 ± 0.037 mm
LVPWS (Left Ventricle Posterior Wall Thickness Systole) [3, 13]: 0.823 ± 0.022 mm
cardiac function by echocardiography (EF, FS, LVIDD, LVIDS) ([3]; MI at P7, dimethyl malonate 100 mg/kg daily for 2 weeks from birth, 21 days post-MI): restored to normal levels
% EF (Ejection Fraction) [3, 14]: 67.727 ± 3.762%
% FS (Fractional Shortening) [3, 14]: 37.135 ± 2.848%
LV Mass (Left Ventricular Mass, Anatomical Weight) [3, 14]: 62.439 ± 4.833 mg
LV Vol; d (Left Ventricular Volume; diastole) [3, 14]: 43.309 ± 5.883 µL
LV Vol; s (Left Ventricular Volume; systole) [3, 14]: 14.962 ± 3.612 µL
LVAWD (Left Ventricle Anterior Wall Thickness Diastole) [3, 14]: 0.650 ± 0.025 mm
LVAWS (Left Ventricle Anterior Wall Thickness Systole) [3, 14]: 0.820 ± 0.033 mm
LVIDD (Left Ventricle Internal Diameter Diastole) [3, 14]: 3.240 ± 0.185 mm
LVIDS (Left Ventricle Internal Diameter Systole) [3, 14]: 2.058 ± 0.204 mm
LVPWD (Left Ventricle Posterior Wall Thickness Diastole) [3, 14]: 0.643 ± 0.026 mm
LVPWS (Left Ventricle Posterior Wall Thickness Systole) [3, 14]: 0.818 ± 0.032 mm
intracellular succinate levels in the heart (LC-MS) ([4]; adult MI, dimethyl malonate 100 mg/kg daily, 14 days post-MI): significant increase in succinate levels
succinate levels (LC-MS metabolomics) ([4]; adult mice treated for 2 weeks with dimethyl malonate, vs saline): increase in succinate levels

— US11813239B2, “Compositions and methods for improving cardiac structure and/or function” (Wisconsin Alumni Research Foundation, priority 2020, dated 2023)
